Reference: patent US9795135B2, “Binary fungicidal composition” (BAYER CORPSCIENCE AKTIENGESELLSCHAFT, priority 2013, dated 2017)

Tests used:
Alternaria solani = test: Alternaria test (tomatoes) / preventive; type: in vivo; conditions: 80 ppm a.i.; tomatoes sprayed 24 h before inoculation; evaluated 3 days after inoculation
Procedure: Alternaria Test (Tomatoes)/Preventive
(§1) Biological control agents and diverse chemical active compounds were tested solo and in a mixture of both. The biological control agents SERENADE® DPZ (comprising the biological control agent B1.1.18, Bacillus subtilis, strain AQ30002, Accession No. NRRL B-50421), SERENADE® ASO (comprising the biological control agent B1.1.1, Bacillus subtilis, strain QST713/AQ713, Accession No. NRRL B-21661) and SONATA® (comprising the biological control agent B1.1.6, Bacillus pumilus, strain QST2808, Accession No. NRRL B-30087) were diluted with water to the desired application rate of 100 ppm a.i. to 500 ppm a.i., referring to the amount of 1.34% Bacillus subtilis or 1.38% Bacillus pumilis product.
The chemical compounds were solved in acetone+dimethylacetamide in a ratio of 1/1+2% PS 16 (Alkylarylpolyglykolether) and diluted with water or the prepared bacteria suspension. Chemical compounds were tested in the concentration of 80 ppm a.i.
In order to test the activity, young plants of tomatoes (21 d after sowing) were sprayed with the preparation of active compound at the stated rate of application. 24 h after application, the plants were inoculated with an aqueous spore suspension (7.500 spores/ml) of Alternaria solani. The wetted plants were then placed in an incubation cabinet at approximately 20° C. and a relative atmospheric humidity of 100% and darkness.
The test was evaluated 3 days after the inoculation. Assessment: % infested leaf. 0% efficacy corresponds to the level of disease in the untreated control while an efficacy of 100% means that no disease is observed.

Sphaerotheca fuliginea = test: Sphaerotheca test (cucumbers) / preventive; type: in vivo; conditions: 80 ppm a.i.; cucumber sprayed 24 h before inoculation; evaluated 7 d after inoculation
Procedure: Sphaerotheca Test (Cucumbers)/Preventive
as §1, with “B-50421), SERENADE” for “B-50421), SERENADE®”
The chemical compounds were solved in acetone+dimethylacetamide in the ratio 1/1+2% PS 16 (Alkylarylpolyglykolether) and diluted with water or the prepared bacteria suspension. Chemical compounds were tested in the concentration of 80 ppm a.i.
In order to test the activity, young plants (kotyledones are fully developed) of cucumber c.v. “Delikatess” were sprayed with the undermentioned preparation of compounds at the stated time of application. 24 h after application, the plants were inoculated with an aqueous spore suspension of Sphaerotheca fuliginea. Infested plants were stored in greenhouse at 22° C. and 70% relative humidity.
The test was evaluated 7 d after inoculation. Assessment: % infested leaf. 0% efficacy corresponds to the level of disease in the untreated control while an efficacy of 100% means that no disease is observed.

Row | SMILES | Efficacy in % Found* (Alternaria solani) [%] | Efficacy in % Found* (Sphaerotheca fuliginea) [%]
1 | CC1(C)N=C(c2cnc3ccccc3c2)c2cccc(F)c2C1(C)C [(I-1)] | 37 | 49
2 | CC1(C)N=C(c2cnc3ccccc3c2)c2cccc(F)c2C1(F)F [(I-3)] | 37 | 32
3 | CC1(C)N=C(c2cnc3ccccc3c2)c2ccccc2C1(F)F [(I-2)] | 13 | 35
